Reference: PMC9719519, “Non-classical ferroptosis inhibition by a small molecule targeting PHB2” (Nature Communications, 2022)

Experiments:
Experiment in all cases: biochemical
Parameters in all cases: Eurofins recombinant human kinase profiling, remaining kinase activity as % of control, 10 uM ATP
Conditions in all cases: ATP 10 uM; read-out: %Ctrl@10 μM
Wee1B(h) = target: T1, Wee1B(h) (Homo sapiens, UniProt P0C1S8)
T1 construct: gene WEE2
In short: (§1)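 Recombinant human kinases, 401 in total, screened using an outsourced kinase profiling assay.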

PDGFRβ(h) = target: T2, PDGFRβ(h) (Homo sapiens, UniProt P09619)
T2 construct: gene PDGFRB
In short: as §1

ULK1(h) = ULK1(h) (Homo sapiens, UniProt O75385)
In short: as §1

TSSK2(h) = TSSK2(h) (Homo sapiens, UniProt Q96PF2)
In short: as §1

PKCθ(h) = target: T3, PKCθ(h) (Homo sapiens, UniProt Q04759)
T3 construct: gene PRKCQ
In short: as §1

MAPK1(h) = target: T4, MAPK1(h) (Homo sapiens, UniProt P27361)
T4 construct: gene MAPK3
In short: as §1

EGFR(T790M)(h) = EGFR(T790M)(h) (Homo sapiens, UniProt P00533, T790M)
In short: as §1

CDK2/cyclinA(h) = CDK2/cyclinA(h) (Homo sapiens, UniProt P24941)
In short: as §1

ULK3(h) = ULK3(h) (Homo sapiens, UniProt Q6PHR2)
In short: as §1

[1] = target: T5, PI3 Kinase (p110(H1047R)/p85)(h) (Homo sapiens, UniProt P42336, H1047R)
T5 construct: gene PIK3CA
In short: as §1

EphA5(h) = EphA5(h) (Homo sapiens, UniProt P54756)
In short: as §1

Met(h) = Met(h) (Homo sapiens, UniProt P08581)
In short: as §1

JAK3(h) = JAK3(h) (Homo sapiens, UniProt P52333)
In short: as §1

DYRK3(h) = DYRK3(h) (Homo sapiens, UniProt O43781)
In short: as §1

Plk1(h) = Plk1(h) (Homo sapiens, UniProt P53350)
In short: as §1

CDKL4(h) = CDKL4(h) (Homo sapiens, UniProt Q5MAI5)
In short: as §1

PRK1(h) = target: T6, PRK1(h) (Homo sapiens, UniProt Q16512)
T6 construct: gene PKN1
In short: as §1

FGFR4(h) = FGFR4(h) (Homo sapiens, UniProt P22455)
In short: as §1

CK1ε(h) = target: T7, CK1ε(h) (Homo sapiens, UniProt P49674)
T7 construct: gene CSNK1E
In short: as §1

CK1γ1(h) = target: T8, CK1γ1(h) (Homo sapiens, UniProt Q9HCP0)
T8 construct: gene CSNK1G1
In short: as §1

NEK11(h) = NEK11(h) (Homo sapiens, UniProt Q8NG66)
In short: as §1

FGFR2(h) = FGFR2(h) (Homo sapiens, UniProt P21802)
In short: as §1

CaMKIIδ(h) = target: T9, CaMKIIδ(h) (Homo sapiens, UniProt Q13557)
T9 construct: gene CAMK2D
In short: as §1

Sequence of NEK11(h) (Q8NG66 whole entry): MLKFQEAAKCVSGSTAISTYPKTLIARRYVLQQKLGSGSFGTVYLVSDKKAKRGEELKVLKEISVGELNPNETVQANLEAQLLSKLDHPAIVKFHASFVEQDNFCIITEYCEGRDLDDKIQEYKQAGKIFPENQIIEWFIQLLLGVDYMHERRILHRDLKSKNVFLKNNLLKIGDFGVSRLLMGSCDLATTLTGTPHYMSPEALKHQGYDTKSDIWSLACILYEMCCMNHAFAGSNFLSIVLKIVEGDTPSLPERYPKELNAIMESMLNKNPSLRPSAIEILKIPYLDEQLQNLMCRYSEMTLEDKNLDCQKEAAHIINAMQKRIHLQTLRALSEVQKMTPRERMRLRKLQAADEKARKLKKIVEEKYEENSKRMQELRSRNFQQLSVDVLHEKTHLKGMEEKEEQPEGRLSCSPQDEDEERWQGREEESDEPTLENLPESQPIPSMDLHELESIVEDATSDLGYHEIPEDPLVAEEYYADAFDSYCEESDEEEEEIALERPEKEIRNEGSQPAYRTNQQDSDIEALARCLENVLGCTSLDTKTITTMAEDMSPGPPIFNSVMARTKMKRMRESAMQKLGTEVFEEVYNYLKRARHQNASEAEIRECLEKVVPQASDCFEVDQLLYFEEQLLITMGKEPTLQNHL
Sequence of DYRK3(h) (O43781 whole entry): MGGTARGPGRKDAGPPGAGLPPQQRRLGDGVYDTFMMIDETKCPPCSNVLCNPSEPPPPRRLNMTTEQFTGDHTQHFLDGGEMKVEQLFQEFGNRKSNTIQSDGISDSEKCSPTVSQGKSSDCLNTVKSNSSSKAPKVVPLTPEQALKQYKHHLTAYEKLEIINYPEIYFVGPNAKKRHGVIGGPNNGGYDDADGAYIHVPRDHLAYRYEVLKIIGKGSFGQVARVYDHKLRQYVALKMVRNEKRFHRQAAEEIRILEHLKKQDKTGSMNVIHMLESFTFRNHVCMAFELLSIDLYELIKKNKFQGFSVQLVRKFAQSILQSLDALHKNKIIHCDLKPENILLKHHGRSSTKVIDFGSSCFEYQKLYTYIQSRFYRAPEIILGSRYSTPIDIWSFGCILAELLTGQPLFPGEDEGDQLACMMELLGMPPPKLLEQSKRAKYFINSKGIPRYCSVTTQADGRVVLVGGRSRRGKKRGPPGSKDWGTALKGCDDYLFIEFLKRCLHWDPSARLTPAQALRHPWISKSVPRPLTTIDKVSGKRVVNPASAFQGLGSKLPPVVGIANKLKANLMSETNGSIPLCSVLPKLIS
Sequence of FGFR4(h) (P22455 whole entry): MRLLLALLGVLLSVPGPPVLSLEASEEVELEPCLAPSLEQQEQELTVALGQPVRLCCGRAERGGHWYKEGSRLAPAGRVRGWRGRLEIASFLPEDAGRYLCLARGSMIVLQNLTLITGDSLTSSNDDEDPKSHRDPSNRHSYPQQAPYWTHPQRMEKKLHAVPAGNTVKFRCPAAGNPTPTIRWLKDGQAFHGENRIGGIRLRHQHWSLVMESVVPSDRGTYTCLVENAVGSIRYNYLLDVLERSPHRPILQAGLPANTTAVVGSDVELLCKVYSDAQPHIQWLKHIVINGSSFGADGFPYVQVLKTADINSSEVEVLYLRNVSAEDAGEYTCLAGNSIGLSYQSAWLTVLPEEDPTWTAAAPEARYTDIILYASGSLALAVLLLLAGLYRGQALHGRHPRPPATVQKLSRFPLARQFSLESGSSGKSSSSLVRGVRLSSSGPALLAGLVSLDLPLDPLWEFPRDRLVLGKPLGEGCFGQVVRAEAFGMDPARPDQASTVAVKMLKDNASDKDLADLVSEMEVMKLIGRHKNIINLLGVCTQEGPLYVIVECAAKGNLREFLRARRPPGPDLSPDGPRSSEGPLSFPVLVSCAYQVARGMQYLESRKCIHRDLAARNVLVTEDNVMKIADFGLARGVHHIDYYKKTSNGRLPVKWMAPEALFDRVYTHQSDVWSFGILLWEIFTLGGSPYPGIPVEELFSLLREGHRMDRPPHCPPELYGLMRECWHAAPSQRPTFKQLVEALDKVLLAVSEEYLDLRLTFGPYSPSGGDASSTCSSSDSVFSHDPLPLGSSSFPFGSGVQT
Sequence of EphA5(h) (P54756 whole entry): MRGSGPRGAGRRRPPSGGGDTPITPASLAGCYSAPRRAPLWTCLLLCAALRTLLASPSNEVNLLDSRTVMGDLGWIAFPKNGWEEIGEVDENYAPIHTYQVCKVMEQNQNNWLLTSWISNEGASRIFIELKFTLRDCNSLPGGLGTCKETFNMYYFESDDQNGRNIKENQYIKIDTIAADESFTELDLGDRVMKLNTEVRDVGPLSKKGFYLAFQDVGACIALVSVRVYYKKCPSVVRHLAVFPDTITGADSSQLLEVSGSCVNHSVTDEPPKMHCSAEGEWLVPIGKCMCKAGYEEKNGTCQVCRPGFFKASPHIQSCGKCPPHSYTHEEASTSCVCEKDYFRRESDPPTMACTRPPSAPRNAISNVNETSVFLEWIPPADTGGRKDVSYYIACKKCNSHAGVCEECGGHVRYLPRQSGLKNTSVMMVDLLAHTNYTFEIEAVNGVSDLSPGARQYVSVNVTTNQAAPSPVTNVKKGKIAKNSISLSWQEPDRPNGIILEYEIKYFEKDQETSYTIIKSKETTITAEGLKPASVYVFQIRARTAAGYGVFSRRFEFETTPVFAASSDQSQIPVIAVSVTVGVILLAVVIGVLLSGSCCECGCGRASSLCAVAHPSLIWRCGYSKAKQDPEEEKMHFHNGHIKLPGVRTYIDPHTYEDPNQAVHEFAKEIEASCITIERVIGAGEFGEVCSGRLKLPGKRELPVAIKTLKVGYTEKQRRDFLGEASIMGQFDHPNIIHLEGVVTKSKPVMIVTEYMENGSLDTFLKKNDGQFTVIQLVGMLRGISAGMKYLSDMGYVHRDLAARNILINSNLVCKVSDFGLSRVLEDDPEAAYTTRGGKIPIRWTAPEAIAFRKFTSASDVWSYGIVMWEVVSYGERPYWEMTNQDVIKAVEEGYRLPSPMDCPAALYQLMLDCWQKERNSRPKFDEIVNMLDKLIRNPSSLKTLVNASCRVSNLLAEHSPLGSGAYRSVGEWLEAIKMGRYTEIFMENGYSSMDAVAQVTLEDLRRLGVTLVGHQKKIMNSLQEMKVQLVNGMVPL
Sequence of JAK3(h) (P52333 whole entry): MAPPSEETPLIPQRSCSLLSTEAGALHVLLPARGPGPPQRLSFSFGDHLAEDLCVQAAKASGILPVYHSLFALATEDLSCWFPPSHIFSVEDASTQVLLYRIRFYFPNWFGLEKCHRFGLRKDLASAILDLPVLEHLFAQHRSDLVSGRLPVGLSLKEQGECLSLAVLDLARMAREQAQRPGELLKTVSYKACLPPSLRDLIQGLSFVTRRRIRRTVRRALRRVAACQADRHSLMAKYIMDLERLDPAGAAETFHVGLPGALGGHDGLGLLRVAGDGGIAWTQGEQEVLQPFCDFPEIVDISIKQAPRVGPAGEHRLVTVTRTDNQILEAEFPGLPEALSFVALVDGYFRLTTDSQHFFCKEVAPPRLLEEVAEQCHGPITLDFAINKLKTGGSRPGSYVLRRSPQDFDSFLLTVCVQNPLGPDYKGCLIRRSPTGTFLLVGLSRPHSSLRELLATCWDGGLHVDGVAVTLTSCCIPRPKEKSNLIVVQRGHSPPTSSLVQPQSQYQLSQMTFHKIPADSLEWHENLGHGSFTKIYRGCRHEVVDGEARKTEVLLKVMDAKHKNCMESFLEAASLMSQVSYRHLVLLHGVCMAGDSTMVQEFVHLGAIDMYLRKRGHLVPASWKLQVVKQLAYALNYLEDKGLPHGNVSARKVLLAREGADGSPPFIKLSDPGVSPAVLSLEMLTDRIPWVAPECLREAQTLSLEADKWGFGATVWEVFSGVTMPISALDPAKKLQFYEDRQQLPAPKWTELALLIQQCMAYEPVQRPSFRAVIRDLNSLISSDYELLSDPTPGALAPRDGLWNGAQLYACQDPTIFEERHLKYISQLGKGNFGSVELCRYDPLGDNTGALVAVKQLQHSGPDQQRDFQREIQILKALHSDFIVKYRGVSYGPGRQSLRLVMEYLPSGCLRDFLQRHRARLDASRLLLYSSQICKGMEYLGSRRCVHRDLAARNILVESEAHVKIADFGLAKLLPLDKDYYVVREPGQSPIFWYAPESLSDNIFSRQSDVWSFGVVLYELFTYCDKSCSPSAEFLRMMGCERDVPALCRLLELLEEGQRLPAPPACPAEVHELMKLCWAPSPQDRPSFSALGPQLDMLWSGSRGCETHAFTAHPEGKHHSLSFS
Sequence of TSSK2(h) (Q96PF2 whole entry): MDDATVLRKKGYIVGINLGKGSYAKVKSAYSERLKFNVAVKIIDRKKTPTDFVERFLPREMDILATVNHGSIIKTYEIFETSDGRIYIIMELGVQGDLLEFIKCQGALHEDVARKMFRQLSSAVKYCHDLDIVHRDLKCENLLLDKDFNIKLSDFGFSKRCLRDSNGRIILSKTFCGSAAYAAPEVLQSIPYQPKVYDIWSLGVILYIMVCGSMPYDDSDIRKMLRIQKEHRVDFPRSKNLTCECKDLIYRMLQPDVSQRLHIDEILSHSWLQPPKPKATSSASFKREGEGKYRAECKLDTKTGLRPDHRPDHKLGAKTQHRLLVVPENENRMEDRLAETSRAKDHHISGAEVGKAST
T4 sequence (P27361 whole entry): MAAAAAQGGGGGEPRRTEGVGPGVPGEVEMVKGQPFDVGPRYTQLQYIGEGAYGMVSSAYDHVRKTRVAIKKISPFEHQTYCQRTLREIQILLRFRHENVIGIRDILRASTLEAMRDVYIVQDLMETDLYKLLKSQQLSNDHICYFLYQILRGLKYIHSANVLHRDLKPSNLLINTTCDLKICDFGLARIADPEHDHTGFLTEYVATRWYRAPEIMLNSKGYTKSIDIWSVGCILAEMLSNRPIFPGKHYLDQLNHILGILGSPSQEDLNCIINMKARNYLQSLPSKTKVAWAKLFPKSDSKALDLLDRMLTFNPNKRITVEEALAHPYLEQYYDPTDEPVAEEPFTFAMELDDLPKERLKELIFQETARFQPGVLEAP

SMILES: C1=C(c2nc(-c3cnn(C4CCNCC4)c3)cn3cc(-c4ccccc4)nc23)CCOC1 [YL-939]
- remaining activity at 10 µM (Wee1B(h)): 92%
- remaining activity at 10 µM (PDGFRβ(h)): 113%
- remaining activity at 10 µM (ULK1(h)): 65%
- remaining activity at 10 µM (TSSK2(h)): 83%
- remaining activity at 10 µM (PKCθ(h)): 93%
- remaining activity at 10 µM (MAPK1(h)): 103%
- remaining activity at 10 µM (EGFR(T790M)(h)): 138%
- remaining activity at 10 µM (CDK2/cyclinA(h)): 95%
- remaining activity at 10 µM (ULK3(h)): 68%
- remaining activity at 10 µM [1]: 99%
- remaining activity at 10 µM (EphA5(h)): 96%
- remaining activity at 10 µM (Met(h)): 54%
- remaining activity at 10 µM (JAK3(h)): 91%
- remaining activity at 10 µM (DYRK3(h)): 77%
- remaining activity at 10 µM (Plk1(h)): 84%
- remaining activity at 10 µM (CDKL4(h)): 76%
- remaining activity at 10 µM (PRK1(h)): 96%
- remaining activity at 10 µM (FGFR4(h)): 94%
- remaining activity at 10 µM (CK1ε(h)): 74%
- remaining activity at 10 µM (CK1γ1(h)): 112%
- remaining activity at 10 µM (NEK11(h)): 86%
- remaining activity at 10 µM (FGFR2(h)): 95%
- remaining activity at 10 µM (CaMKIIδ(h)): 68%
